Reference: patent publication US20240300945A1, “CLY SERIES COMPOUND, PREPARATION METHOD THEREFOR AND USE THEREOF IN PREPARATION OF DRUGS” (NANJING WELLBEST PHARMACEUTICAL CO., LTD, priority 2021, published 2024)
Marks after values point to notes of the source that are not given here.

Tests used:
[1] = tested on: rabbit ear acne model; assay: Rabbit ear acne model: epidermal thickness, hair follicle area, sebaceous gland diameter; format: in vivo, New Zealand rabbits; details: rabbit right ear
Source text: New Zealand rabbits were, according to weights, randomly divided into the model control group (applied cream matrix), positive treatment group (applied Differin on the skin), CLY-1 external treatment group (0.25% CLY-1 cream on the skin), CLY-2 external treatment group (0.25% CLY-2 cream on the skin), CLY-3 external treatment group (0.25% CLY-3 cream on the skin), CLY-4 external treatment group (0.25% CLY-4 cream on the skin) CLY-8 external treatment group (0.25% CLY-8 cream on the skin), CLY-9 external treatment group (0.25% CLY-9 cream on the skin), CLY-11 external treatment group (0.25% CLY-11 cream on the skin), CLY-19 external treatment group (0.25% CLY-19 cream on the skin), CLY-36 external treatment group (0.25% CLY-36 cream on the skin); CLY-1 intravenous injection group (1 mg/kg·d), CLY-2 intravenous injection group (1 mg/kg·d), CLY-3 intravenous injection group (1 mg/kg·d), CLY-4 intravenous injection group (1 mg/kg·d), CLY-8 intravenous injection group (1 mg/kg·d), CLY-9 intravenous injection group (1 mg/kg·d), CLY-11 intravenous injection group (1 mg/kg·d), CLY-19 intravenous injection group (1 mg/kg·d), and CLY-36 intravenous injection group (1 mg/kg·d), with 10 in each group. Took the inner side of the rabbit's right ear for depilation treatment as the observation area, and the inner side of the left ear of all rabbits as their own negative control, and applied 95% alcohol. The inner side of the right ear of the model group and the treatment group were both coated with 2% coal tar (Alfa Aesar China, which used 95% alcohol to prepare 2% coal tar solution), and evenly applied the sterile cotton swab to the opening of the ear duct on the inner side of the rabbit's ear within the range of about 2 cm×2 cm, once a day, 0.5 mL each time, and wiped the previous application site with warm water for 14 consecutive days to establish the acne micro-pigmentation model. Visually observed the changes of local skin, including ear thickness, hardness, roughness, and whether there was a black angle plug at the hair follicle mouth. 18 hours after the last application, the sample was sacrificed and skin was taken. The skin tissue was taken from the application site by using a 5 mm punch, fixed with 10% formaldehyde, embedded in paraffin, and stained with HE. The histopathological observation and analysis were carried out.
The histopathological changes were observed under the microscope, and the thickness of five different epidermises on a slice was measured with the Biomias99 image analysis system, and the average value was calculated; Detected the area of the two hair follicles and the diameter of the four sebaceous glands with the same position and the most complete structure in the four sections, calculated their average values, and then subtracted the data of the left and right external auditory canal of the rabbits in each group to obtain the difference in the thickness of the left and right ear epidermis, the difference in the area of the hair follicles and the difference in the diameter of the sebaceous glands.
SPSS16 software was used for statistical analysis. The paired t-test was used for the left and right self-contrast, and the t-test was used for the comparison between the groups, P<0.05 was statistically significant.

[2] = tested on: rat hair loss model; assay: Rat hair loss (androgenic alopecia) model: hair length; format: in vivo, Wistar rats; details: for 15-day hair length / 30-day hair length / 45-day hair length / 60-day hair length: rat AGA model; for adverse reactions: rat hair loss model, external use and system application, 60 days
Source text: (1) Compound CLY-1, CLY-2, CLY-3, CLY-4, CLY-5, CLY-8, CLY-11, CLY-19, CLY-36, CLY-39 tincture preparation method: 75% ethanol was mixed with appropriate amount of above compounds to prepare a tincture of different concentrations.
(2) Positive treatment drug: 5% minoxidil tincture (trade name: Mandi, Zhejiang Wanma Pharmaceutical Co., Ltd.).
Wistar rats were, according to weights, randomly divided into the negative control group (75% ethanol for external use), model group (75% ethanol for external use), positive control group (external 5% minoxidil tincture), CLY-1 external treatment group (external 5% CLY-1 tincture), CLY-2 external treatment group (external 5% CLY-2 tincture), CLY-3 external treatment group (external 5% CLY-3 tincture), CLY-4 external treatment group (external 5% CLY-4 tincture), and CLY-5 external treatment group (external 5% CLY-5 tincture) according to their body weight CLY-8 external treatment group (external 5% CLY-8 tincture), CLY-11 external treatment group (external 5% CLY-11 tincture), CLY-19 external treatment group (external 5% CLY-19 tincture), CLY-36 external treatment group (external 5% CLY-36 tincture), CLY-39 external treatment group (external 5% CLY-39 tincture), CLY-1 intravenous injection group (2 mg/kg·d), CLY-3 intravenous injection group (2 mg/kg·d), CLY-4 intravenous injection group (2 mg/kg·d) CLY-5 intravenous injection group (2 mg/kg·d), CLY-8 intravenous injection group (2 mg/kg·d), CLY-11 intravenous injection group (2 mg/kg·d), CLY-19 intravenous injection group (2 mg/kg·d), CLY-36 intravenous injection group (2 mg/kg·d), and CLY-39 intravenous injection group (2 mg/kg·d), with 10 rats in each group. Before the experiment, an area of 4 cm×5 cm was selected on each rat on the back of the neck to remove hair as the observation area. In addition to the negative control group, rats were subcutaneously injected with testosterone propionate injection [5 ml/(kg·d)] once a day for 60 days to establish the androgenic alopecia (AGA) model. […] At the same time, the drug was applied to the observation area on the back of the rats in the corresponding drug group at the rate of 2 mL/(one time), twice a day, at an interval of 8 hours; Intravenous administration once a day. The negative control group and the model control group were smeared with 75% ethanol solution, 2 mL/(one rat per time), twice a day, for 60 days.
Took 10 hairs from the observation area on the back of each rat every 15 days after administration, and measured the hair length with a vernier caliper. After 60 days of administration, the skin of the experimental observation area was taken for routine tissue dehydration, paraffin embedding, HE staining, and light microscopy to observe the histopathological changes of the rat skin hair follicles and sebaceous glands. Semi-quantitative analysis was performed for each group. The grading criteria are as follows: the normal structure of dermal tissue cells, subcutaneous hair follicles, and sebaceous glands is marked as […]: no hyperplasia of dermal tissue is found, the lesions of hair follicles and sebaceous glands are limited, and no inflammation is found under the skin is marked as “+”: no obvious hyperplasia of dermal tissue is found, and the follicles are obviously cystic. No obvious hyperplasia of sebaceous glands is found, and no inflammation is found under the skin is marked as “+”: the dermal tissue has segmental hyperplasia, which is not obvious, A small number of hair follicles have cystic changes, and the sebaceous glands have mild hyperplasia and hypertrophy. There is no obvious inflammation under the skin, which is marked as “++”: the dermal tissue cells of the skin have different degrees of segmental hyperplasia, and some hair follicles have cystic changes, showing uneven size of hair follicles, and no cells around. The sebaceous glands have hyperplasia, and the nuclei in the proliferative glands are few. […]

[3] = external use (0.25% CLY cream; positive: Differin)
[4] = intravenous injection 1 mg/kg·d
[5] = external 5% tincture twice a day
[6] = intravenous injection 2 mg/kg·d

Compound	epidermal thickness [1, 3]	hair follicle area [1, 3]	sebaceous gland diameter [1, 3]	epidermal thickness [1, 4]	hair follicle area [1, 4]	sebaceous gland diameter [1, 4]	15-day hair length [2, 5]	30-day hair length [2, 5]	45-day hair length [2, 5]	60-day hair length [2, 5]	15-day hair length [2, 6]	30-day hair length [2, 6]	45-day hair length [2, 6]	60-day hair length [2, 6]	adverse reactions [2]
O=C(c1ccc(-c2ccccc2-c2nnn[nH]2)cc1)N(c1ncccc1Cl)[C@@H]1CCCNC1 [CLY-19]	0.2365 ± 0.0181 mm	0.2766 ± 0.0953* mm^2	0.0795 ± 0.0398 mm	0.2276 ± 0.0165 mm	0.2235 ± 0.0843* mm^2	0.0523 ± 0.0316 mm	8.5* mm	9.4* mm	14.02* mm	17.6* mm	8.8* mm	9.7* mm	14.9* mm	17.8* mm	no obvious adverse reactions
O=C(c1ccc(-c2ccccc2Cl)cc1)N(c1ncccc1Cl)[C@@H]1CCCNC1 [CLY-36]	0.2387 ± 0.0186 mm	0.2773 ± 0.0945* mm^2	0.0805 ± 0.0406 mm	0.2282 ± 0.0171 mm	0.2241 ± 0.0846* mm^2	0.0536 ± 0.0319 mm	8.1* mm	8.7* mm	13.81* mm	17.1* mm	8.6* mm	9.2* mm	14.2* mm	17.3* mm	no obvious adverse reactions
Nc1ccccc1-c1ccc(C(=O)N(c2ncccc2Cl)[C@@H]2CCCNC2)cc1 [CLY-39]	0.2312 ± 0.0152 mm	0.2315 ± 0.0662* mm^2	0.0716 ± 0.0323 mm	0.2056 ± 0.0156 mm	0.2056 ± 0.0762* mm^2	0.0531 ± 0.0306 mm	9.1* mm	9.3* mm	14.8* mm	18.2* mm	9.3* mm	9.9* mm	14.9* mm	18.1* mm	no obvious adverse reactions
